Test results: patent US6127519A, “Calcitonin derivatives” (Tsumura & Co., priority 1990, dated 2000)
Where “and” joins values, the source holds several entries; their conditions need not be identical. Equal values may be shown once. Bridge positions count the residues as written; N and C are the ends. Peptide text beside a SMILES is read from it.

Tested on: calcium concentration in the serum
Assay: Test 1: reduction of calcium level in serum after tail vein administration to rats
Type: in vivo, rats of the Wistar strain
Settings: 1 ml/kg tail vein, female Wistar rats
Procedure: Six-weeks-old female rats of the Wistar strain (each group consisting of 4 rats) were used as the test animal, and the peptides of the present invention obtained in the examples given hereinafter were tested at concentrations adjusted with a 1% aqueous solution of sodium acetate (pH 4,0) to which 0.1% bovine serum albumin (BSA) was added. The solution was adjusted to a concentration of 166 μg/ml 830 ng/ml or 83 ng/ml and administered with the tail vein in an amount of 1 ml/kg. The back of the rat was fixed and blood was collected just before the administration, and at predetermined intervals after the administration, from the neck vein. The amount of blood collected each time was 0.3 ml. The sampled blood was subjected to centrifugal separation at 3500 rpm for 20 minutes to separate serum and the calcium content in the separated serum was measured by TBA-380 (supplied by Toshiba) using a Wako calcium-measuring kit (o-cpc method), and the ratio of reduction of the calcium concentration in the serum was determined.

[1] = concentration 830 ng/ml, 0 hour (just before administration)
[2] = concentration 830 ng/ml, 1 hour
[3] = concentration 830 ng/ml, 2 hours
[4] = concentration 830 ng/ml, 4 hours
[5] = concentration 830 ng/ml, 6 hours

SMILES | Serum calcium level as percent of pre-dose baseline (concentration 83 ng/ml, 0 hour (just before administration)) [%] | Serum calcium level as percent of pre-dose baseline (concentration 83 ng/ml, 1 hour) [%] | Serum calcium level as percent of pre-dose baseline (concentration 83 ng/ml, 2 hours) [%] | Serum calcium level as percent of pre-dose baseline (concentration 83 ng/ml, 4 hours) [%] | Serum calcium level as percent of pre-dose baseline (concentration 83 ng/ml, 6 hours) [%] | Serum calcium level as percent of pre-dose baseline [1] [%] | Serum calcium level as percent of pre-dose baseline [2] | Serum calcium level as percent of pre-dose baseline [3] | Serum calcium level as percent of pre-dose baseline [4] | Serum calcium level as percent of pre-dose baseline [5]
CC[C@H](C)[C@H](NC(=O)[C@H](C)NC(=O)[C@@H](NC(=O)[C@H](CCC(N)=O)NC(=O)[C@@H]1CCCN1C(=O)[C@H](Cc1ccc(O)cc1)NC(=O)[C@@H](NC(=O)[C@H](CCC(N)=O)NC(=O)[C@H](CC(C)C)NC(=O)[C@H](CCCCN)NC(=O)[C@H](Cc1c[nH]cn1)NC(=O)[C@H](CC(C)C)NC(=O)[C@H](CCC(=O)O)NC(=O)[C@H](CCC(N)=O)NC(=O)[C@H](CO)NC(=O)[C@H](CC(C)C)NC(=O)[C@H](CCCCN)NC(=O)CNC(=O)[C@H](CC(C)C)NC(=O)[C@H](CCSC)NC(=O)[C@@H]1CSSC[C@H](N)C(=O)NCC(=O)N[C@@H](CC(N)=O)C(=O)N[C@@H](CC(C)C)C(=O)N[C@@H](CO)C(=O)N[C@@H]([C@@H](C)O)C(=O)N1)[C@@H](C)O)[C@@H](C)O)C(=O)NCC(=O)N[C@H](C(=O)NCC(=O)N[C@@H](C)C(=O)N1CCC[C@H]1C(N)=O)C(C)C [Peptide No. 1] (H-CGNLSTCMLGKLSQELHKLQTYPQTAIGVGAP-NH2; disulfide 1-7) | 100.0 | 74.3 | 81.1 | 86.9 | 83.5 | 100.0 | 85.6% and 74.3% and 70.2% | 81.6% and 68.4% and 64.4% | 76.8% and 68.0% and 60.6% | 88.5% and 84.8% and 78.3%
CC[C@H](C)[C@H](NC(=O)[C@H](C)NC(=O)[C@@H](NC(=O)[C@H](CCC(N)=O)NC(=O)[C@@H]1CCCN1C(=O)[C@H](Cc1ccc(O)cc1)NC(=O)[C@@H](NC(=O)[C@H](CCC(N)=O)NC(=O)[C@H](CCCCN)NC(=O)[C@H](Cc1c[nH]cn1)NC(=O)[C@H](CC(C)C)NC(=O)[C@H](CCC(=O)O)NC(=O)[C@H](CCC(N)=O)NC(=O)[C@H](CO)NC(=O)[C@H](CC(C)C)NC(=O)[C@H](CCCCN)NC(=O)CNC(=O)[C@H](CC(C)C)NC(=O)[C@H](CCSC)NC(=O)[C@@H]1CSSC[C@H](N)C(=O)NCC(=O)N[C@@H](CC(N)=O)C(=O)N[C@@H](CC(C)C)C(=O)N[C@@H](CO)C(=O)N[C@@H]([C@@H](C)O)C(=O)N1)[C@@H](C)O)[C@@H](C)O)C(=O)NCC(=O)N[C@H](C(=O)NCC(=O)N[C@@H](C)C(=O)N1CCC[C@H]1C(N)=O)C(C)C [Peptide No. 2] (H-CGNLSTCMLGKLSQELHKQTYPQTAIGVGAP-NH2; disulfide 1-7) |  |  |  |  |  | 100.0 | 86.7% | 87.7% | 92.8% | 90.1%
CC[C@H](C)[C@H](NC(=O)[C@H](C)NC(=O)[C@@H](NC(=O)[C@H](CCC(N)=O)NC(=O)[C@@H]1CCCN1C(=O)[C@H](Cc1ccc(O)cc1)NC(=O)[C@H](CC(C)C)NC(=O)[C@H](CCCCN)NC(=O)[C@H](Cc1c[nH]cn1)NC(=O)[C@H](CC(C)C)NC(=O)[C@H](CCC(=O)O)NC(=O)[C@H](CCC(N)=O)NC(=O)[C@H](CO)NC(=O)[C@H](CC(C)C)NC(=O)[C@H](CCCCN)NC(=O)CNC(=O)[C@H](CC(C)C)NC(=O)[C@H](CCSC)NC(=O)[C@@H]1CSSC[C@H](N)C(=O)NCC(=O)N[C@@H](CC(N)=O)C(=O)N[C@@H](CC(C)C)C(=O)N[C@@H](CO)C(=O)N[C@@H]([C@@H](C)O)C(=O)N1)[C@@H](C)O)C(=O)NCC(=O)N[C@H](C(=O)NCC(=O)N[C@@H](C)C(=O)N1CCC[C@H]1C(N)=O)C(C)C [Peptide No. 3] (H-CGNLSTCMLGKLSQELHKLYPQTAIGVGAP-NH2; disulfide 1-7) |  |  |  |  |  | 100.0 | 97.0% | 94.9% | 86.4% | 89.9%
CC[C@H](C)[C@H](NC(=O)[C@H](C)NC(=O)[C@@H](NC(=O)[C@H](CCC(N)=O)NC(=O)[C@@H]1CCCN1C(=O)[C@H](Cc1ccc(O)cc1)NC(=O)[C@@H](NC(=O)[C@H](CCC(N)=O)NC(=O)CNC(=O)[C@H](CCCCN)NC(=O)[C@H](Cc1c[nH]cn1)NC(=O)[C@H](CC(C)C)NC(=O)[C@H](CCC(=O)O)NC(=O)[C@H](CCC(N)=O)NC(=O)[C@H](CO)NC(=O)[C@H](CC(C)C)NC(=O)[C@H](CCCCN)NC(=O)CNC(=O)[C@H](CC(C)C)NC(=O)[C@H](CCSC)NC(=O)[C@@H]1CSSC[C@H](N)C(=O)NCC(=O)N[C@@H](CC(N)=O)C(=O)N[C@@H](CC(C)C)C(=O)N[C@@H](CO)C(=O)N[C@@H]([C@@H](C)O)C(=O)N1)[C@@H](C)O)[C@@H](C)O)C(=O)NCC(=O)N[C@H](C(=O)NCC(=O)N[C@@H](C)C(=O)N1CCC[C@H]1C(N)=O)C(C)C [Peptide No. 4] (H-CGNLSTCMLGKLSQELHKGQTYPQTAIGVGAP-NH2; disulfide 1-7) |  |  |  |  |  | 100.0 | 90.5% | 92.0% | 95.5% | 86.7%
CC[C@H](C)[C@H](NC(=O)[C@H](C)NC(=O)[C@@H](NC(=O)[C@H](CCC(N)=O)NC(=O)[C@@H]1CCCN1C(=O)[C@H](Cc1ccc(O)cc1)NC(=O)[C@@H](NC(=O)[C@H](CCC(N)=O)NC(=O)[C@H](CC(C)C)NC(=O)[C@H](CCCCN)NC(=O)[C@H](Cc1c[nH]cn1)NC(=O)[C@H](CC(C)C)NC(=O)[C@H](CCC(=O)O)NC(=O)[C@H](CCC(N)=O)NC(=O)[C@H](CO)NC(=O)[C@H](CC(C)C)NC(=O)[C@H](CCCCN)NC(=O)CNC(=O)[C@H](CC(C)C)NC(=O)[C@H](CCSC)NC(=O)[C@@H]1CSSC[C@H](N)C(=O)NCC(=O)N[C@@H](CC(N)=O)C(=O)N[C@@H](CC(C)C)C(=O)N[C@@H](CO)C(=O)N[C@@H]([C@@H](C)O)C(=O)N1)[C@@H](C)O)[C@@H](C)O)C(=O)NCC(=O)N[C@@H](CO)C(=O)NCC(=O)N[C@H](C(=O)N1CCC[C@H]1C(N)=O)[C@@H](C)O [Peptide No. 5] (H-CGNLSTCMLGKLSQELHKLQTYPQTAIGSGTP-NH2; disulfide 1-7) |  |  |  |  |  | 100.0 | 76.4% | 74.2% | 70.7% | 76.4%
CC[C@H](C)[C@H](NC(=O)[C@H](C)NC(=O)[C@@H](NC(=O)[C@H](CCC(N)=O)NC(=O)[C@@H]1CCCN1C(=O)[C@H](Cc1ccc(O)cc1)NC(=O)[C@@H](NC(=O)[C@H](CCC(N)=O)NC(=O)[C@H](CCCCN)NC(=O)[C@H](Cc1c[nH]cn1)NC(=O)[C@H](CC(C)C)NC(=O)[C@H](CCC(=O)O)NC(=O)[C@H](CCC(N)=O)NC(=O)[C@H](CO)NC(=O)[C@H](CC(C)C)NC(=O)[C@H](CCCCN)NC(=O)CNC(=O)[C@H](CC(C)C)NC(=O)[C@H](CCSC)NC(=O)[C@@H]1CSSC[C@H](N)C(=O)NCC(=O)N[C@@H](CC(N)=O)C(=O)N[C@@H](CC(C)C)C(=O)N[C@@H](CO)C(=O)N[C@@H]([C@@H](C)O)C(=O)N1)[C@@H](C)O)[C@@H](C)O)C(=O)NCC(=O)N[C@@H](CO)C(=O)NCC(=O)N[C@H](C(=O)N1CCC[C@H]1C(N)=O)[C@@H](C)O [Peptide No. 6] (H-CGNLSTCMLGKLSQELHKQTYPQTAIGSGTP-NH2; disulfide 1-7) |  |  |  |  |  | 100.0 | 73.1% | 68.1% | 74.6% | 92.1%
